Test systems include Bacillus cereus; Staphylococcus aureus; Escherichia coli; Bacillus subtilis.
Test in all cases: ≥ marks a high value that may be exact or a test limit, other limits are often not marked, values filed in µg/mL are converted to µM
The subject of experiment [1] is Pseudomonas aeruginosa ATCC 27853.
Experiment [2] relates to Escherichia coli ATCC 25922.
Experiment [3] has as its system Staphylococcus aureus ATCC 29213.
For experiment [4], the system named is Staphylococcus aureus ATCC 25923.
In experiment [5] the test system is Candida albicans ATCC 2002.
The subject of experiment [6] is Enterococcus faecalis ATCC 29212.

≈ marks a conversion by molar mass, not a printed value.

As a reminder, the MIC is the least concentration at which growth counts as inhibited. A low value points to greater potency. As to `CC(C)C[C@H](NC(=O)[C@H](CCCCN)NC(=O)[C@H](Cc1ccccc1)NC(=O)[C@@H](NC(=O)CNC(=O)CNC(=O)[C@H](CC(C)C)NC(=O)[C@@H](N)Cc1ccccc1)C(C)C)C(=O)N[C@@H](C)C(=O)N[C@@H](CO)C(=O)N[C@@H](CCCCN)C(=O)N[C@H](C(=O)N[C@@H](Cc1ccccc1)C(=O)N1CCC[C@H]1C(=O)N[C@@H](C)C(=O)N[C@H](C(=O)N[C@@H](Cc1ccccc1)C(=O)NCC(=O)N[C@@H](CCCCN)C(=O)N[C@H](C(=O)O)C(C)C)C(C)C)C(C)C` [FLGGVFKLASKVFPAVFGKV], the minimal inhibitory concentration (MIC) in the experiment with Bacillus cereus is 15.2 µM (≈ 32 µg/mL); against Staphylococcus aureus, 30.3 µM (≈ 64 µg/mL); with Escherichia coli, 30.3 µM (≈ 64 µg/mL).

As to `CC(C)C[C@H](NC(=O)[C@@H](N)Cc1ccccc1)C(=O)NCC(=O)N[C@H](C(=O)N[C@H](C(=O)N[C@@H](Cc1ccccc1)C(=O)N[C@@H](CCCCN)C(=O)N[C@@H](CCCCN)C(=O)N[C@@H](C)C(=O)N[C@@H](CO)C(=O)N[C@@H](CCCCN)C(=O)N[C@H](C(=O)N[C@@H](Cc1ccccc1)C(=O)N1CCC[C@H]1C(=O)N[C@@H](CCCCN)C(=O)N[C@H](C(=O)N[C@@H](Cc1ccccc1)C(=O)NCC(=O)N[C@@H](CCCCN)C(=O)N[C@H](C(=O)O)C(C)C)C(C)C)C(C)C)C(C)C)C(C)C` [FLGVVFKKASKVFPKVFGKV], the MIC is at least 57.5 µM with Bacillus cereus, over 57.5 µM in the experiment with Staphylococcus aureus and 57.5 µM (≈ 128 µg/mL) with Escherichia coli.

Regarding `CC(C)C[C@H](NC(=O)[C@H](CCCCN)NC(=O)[C@H](Cc1ccccc1)NC(=O)[C@@H](NC(=O)[C@@H](NC(=O)CNC(=O)[C@H](CC(C)C)NC(=O)[C@@H](N)Cc1ccccc1)C(C)C)C(C)C)C(=O)N[C@@H](C)C(=O)N[C@@H](CO)C(=O)N[C@@H](CCCCN)C(=O)N[C@H](C(=O)N[C@@H](Cc1ccccc1)C(=O)N1CCC[C@H]1C(=O)N[C@@H](C)C(=O)N[C@H](C(=O)N[C@@H](Cc1ccccc1)C(=O)NCC(=O)N[C@@H](CCCCN)C(=O)N[C@H](C(N)=O)C(C)C)C(C)C)C(C)C` [FLGVVFKLASKVFPAVFGKV], the MIC in the experiment with Bacillus cereus was 7.43 µM (≈ 16 µg/mL); against Staphylococcus aureus, 1.86 µM (≈ 4 µg/mL); in the experiment with Escherichia coli, 29.7 µM (≈ 64 µg/mL).

Turning to `CC[C@H](C)[C@H](NC(=O)[C@H](CCCN=C(N)N)NC(=O)CNC(=O)[C@@H](NC(=O)[C@H](Cc1ccccc1)NC(=O)[C@@H]1CCCN1C(=O)[C@H](CC(C)C)NC(=O)[C@@H](N)Cc1ccccc1)C(C)C)C(=O)N[C@@H](C)C(=O)N[C@@H](CO)C(=O)N[C@@H](CCCCN)C(=O)N[C@H](C(=O)N[C@H](C(=O)N1CCC[C@H]1C(=O)N[C@@H](CO)C(=O)N[C@H](C(=O)N[C@H](C(=O)NCC(=O)N[C@@H](CCCCN)C(=O)N[C@H](C(=O)O)C(C)C)[C@@H](C)CC)C(C)C)C(C)C)C(C)C` [FLPFVGRIASKVVPSVIGKV], the MIC was at least 121 µM against Bacillus cereus and over 121 µM against Escherichia coli.

With `CC[C@H](C)[C@H](NC(=O)[C@H](CC(C)C)NC(=O)[C@H](C)NC(=O)[C@H](CC(C)C)NC(=O)[C@H](CC(C)C)NC(=O)CN)C(=O)N[C@@H](CO)C(=O)N[C@@H](Cc1c[nH]c2ccccc12)C(=O)N[C@H](C(=O)N[C@@H](CCCCN)C(=O)N[C@@H](CCCN=C(N)N)C(=O)N[C@@H](CCCCN)C(=O)N[C@@H](CCCN=C(N)N)C(=O)N[C@@H](CCC(N)=O)C(=O)N[C@@H](CCC(N)=O)C(N)=O)[C@@H](C)CC` [GLLALISWIKRKRQQ], the results for the MIC in the experiment on Bacillus subtilis, against Staphylococcus aureus and against Escherichia coli were 1.22 µM (≈ 2.2 µg/mL), 0.663 µM (≈ 1.2 µg/mL) and 39.1 µM (≈ 70.8 µg/mL), respectively.

Take `CC[C@H](C)[C@H](NC(=O)[C@H](CC(C)C)NC(=O)[C@H](C)NC(=O)[C@@H]1CCCN1C(=O)[C@H](CC(C)C)NC(=O)CN)C(=O)N[C@@H](CC(C)C)C(=O)N[C@@H](Cc1c[nH]c2ccccc12)C(=O)N[C@H](C(=O)N[C@@H](CCCCN)C(=O)N[C@@H](CCCN=C(N)N)C(=O)N[C@@H](CCCCN)C(=O)N[C@@H](CCCN=C(N)N)C(=O)N[C@@H](CCC(N)=O)C(=O)N[C@@H](CCC(N)=O)C(N)=O)[C@@H](C)CC` [GLPALILWIKRKRQQ]: the results for the MIC with Bacillus subtilis, in the experiment with Staphylococcus aureus and against Escherichia coli were 0.352 µM (≈ 0.64 µg/mL), 0.769 µM (≈ 1.4 µg/mL) and 44.9 µM (≈ 81.7 µg/mL), respectively.

Regarding `CC[C@H](C)[C@H](N)C(=O)N[C@@H](CC(N)=O)C(=O)N[C@@H](CO)C(=O)N[C@@H](CC(C)C)C(=O)N[C@@H](CCCCN)C(=O)N[C@@H](CC(C)C)C(=O)NCC(=O)N[C@@H](CCCCN)C(=O)N[C@@H](CCCCN)C(=O)N[C@H](C(=O)N[C@@H](CC(C)C)C(=O)NCC(=O)N[C@@H](C)C(=O)N[C@@H](CC(C)C)C(N)=O)[C@@H](C)CC` [INSLKLGKKILGAL], the MIC against Bacillus subtilis was at least 100 µM; against Escherichia coli, over 100 µM.

Regarding `CC[C@H](C)[C@H](NC(=O)[C@H](CO)NC(=O)[C@H](CCCCN)NC(=O)[C@@H](NC(=O)[C@@H](NC(=O)[C@@H](NC(=O)[C@@H](NC(=O)[C@H](CCCCN)NC(=O)[C@@H](NC(=O)[C@@H](NC(=O)[C@@H](N)CCCCN)[C@@H](C)CC)C(C)C)C(C)C)[C@@H](C)CC)[C@@H](C)O)C(C)C)C(=O)N[C@@H](CO)C(=O)N1CCC[C@H]1C(=O)N[C@@H](C)C(=O)N[C@@H](CO)C(=O)N[C@@H](CC(C)C)C(=O)N[C@H](C(=O)N1CCC[C@H]1C(=O)N[C@H](C(=O)N[C@@H](Cc1ccccc1)C(=O)O)C(C)C)C(C)C` [KIVKVITVKSISPASLVPVF], the minimal inhibitory concentration (MIC) against Bacillus cereus is at least 60.2 µM; with Escherichia coli, over 60.2 µM.

On to `CC[C@H](C)[C@H](NC(=O)[C@H](CCCCN)NC(=O)[C@H](Cc1ccccc1)NC(=O)[C@@H](NC(=O)[C@H](C)NC(=O)[C@@H]1CCCN1)C(C)C)C(=O)N[C@@H](C)C(=O)N[C@@H](CO)C(=O)N[C@@H](CCCCN)C(=O)N[C@H](C(=O)N[C@H](C(=O)N1CCC[C@H]1C(=O)N[C@@H](CO)C(=O)N[C@H](C(=O)N[C@@H](Cc1ccc(O)cc1)C(=O)N[C@@H](CS)C(=O)N[C@@H](CCCCN)C(=O)N[C@H](C(=O)N[C@@H](CO)C(=O)N[C@@H](CCCN=C(N)N)C(=O)O)C(C)C)C(C)C)C(C)C)C(C)C` [PAVFKIASKVVPSVYCKVSR], for which the MIC was at least 118 µM against Bacillus cereus and 58.8 µM (≈ 128 µg/mL) in the experiment on Escherichia coli.

Turning to `CC[C@H](C)[C@H](NC(=O)[C@H](CCCCN)NC(=O)[C@H](CCCCN)NC(=O)[C@@H](N)CCC(N)=O)C(=O)N[C@@H](CCCN=C(N)N)C(=O)N[C@@H](C)C(=O)N[C@@H](CCCN=C(N)N)C(=O)N[C@@H](CC(C)C)C(=O)N[C@@H](CO)C(=O)N[C@@H](C)C(=O)O` [QKKIRARLSA], the MIC in experiment [1], in experiment [2] and in experiment [3] was over 54.7 µM each time.

Consider `CC[C@H](C)[C@H](NC(=O)[C@H](C)NC(=O)[C@H](CCCN=C(N)N)NC(=O)[C@H](Cc1ccc(O)cc1)NC(=O)[C@H](CC(C)C)NC(=O)[C@H](CC(N)=O)NC(=O)[C@H](Cc1ccc(O)cc1)NC(=O)CNC(=O)[C@H](C)NC(=O)[C@@H](NC(=O)[C@@H](NC(=O)[C@@H](NC(=O)[C@H](CCCN=C(N)N)NC(=O)[C@@H](NC(=O)[C@@H](NC(=O)[C@@H](NC(=O)[C@@H]1CCCN1C(=O)[C@H](Cc1c[nH]c2ccccc12)NC(=O)[C@H](Cc1ccccc1)NC(=O)[C@H](CCCN=C(N)N)NC(=O)[C@H](CCCCN)NC(=O)[C@@H](NC(=O)[C@@H](N)CCCN=C(N)N)[C@@H](C)CC)C(C)C)C(C)C)[C@@H](C)CC)[C@@H](C)O)C(C)C)C(C)C)C(=O)N[C@@H](CCCCN)C(=O)O` [RIKRFWPVVIRTVVAGYNLYRAIK], for which the MIC is 2.41 µM (≈ 7.03 µg/mL) in [4], 0.803 µM (≈ 2.34 µg/mL) in experiment [2], 1.61 µM (≈ 4.69 µg/mL) in the experiment with Bacillus subtilis and 0.201 µM (≈ 0.586 µg/mL) in experiment [5].

Consider `CC[C@H](C)[C@H](NC(=O)[C@@H](NC(=O)[C@@H](NC(=O)[C@@H]1CCCN1C(=O)[C@H](Cc1c[nH]c2ccccc12)NC(=O)[C@H](Cc1ccccc1)NC(=O)[C@H](CCCN=C(N)N)NC(=O)[C@H](CCCCN)NC(=O)[C@@H](NC(=O)[C@@H](N)CCCN=C(N)N)[C@@H](C)CC)C(C)C)C(C)C)C(=O)N[C@@H](CCCN=C(N)N)C(=O)N[C@H](C(=O)N[C@H](C(=O)N[C@H](C(=O)N[C@@H](C)C(=O)NCC(=O)N[C@@H](Cc1ccc(O)cc1)C(=O)N[C@@H](CC(N)=O)C(=O)N[C@@H](CC(C)C)C(=O)N[C@@H](Cc1ccc(O)cc1)C(=O)N[C@@H](CCCN=C(N)N)C(=O)O)C(C)C)C(C)C)[C@@H](C)O` [RIKRFWPVVIRTVVAGYNLYR], for which the MIC in experiment [2] and in experiment [5] was 3.6 µM (≈ 9.38 µg/mL) each time.

Regarding `NC(=O)[C@H](Cc1ccccc1)NC(=O)[C@H](Cc1ccccc1)NC(=O)[C@H](Cc1ccccc1)NC(=O)[C@H](Cc1ccccc1)NC(=O)[C@@H]1CCCN1C(=O)[C@H](CCCN=C(N)N)NC(=O)[C@@H]1CCCN1C(=O)[C@H](CCCN=C(N)N)NC(=O)[C@@H]1CCCN1C(=O)[C@H](CCCN=C(N)N)NC(=O)[C@@H]1CCCN1C(=O)[C@H](CCCN=C(N)N)NC(=O)[C@@H](N)CCCN=C(N)N` [RRPRPRPRPFFFF], the MIC in experiment [1] came to 40 µM (≈ 71 µg/mL); in experiment [2], 80 µM (≈ 142 µg/mL); in [3], 20 µM (≈ 35.5 µg/mL).

In the case of `CC[C@H](C)[C@H](NC(=O)[C@H](CCCCN)NC(=O)[C@H](CCCCN)NC(=O)[C@H](Cc1ccccc1)NC(=O)[C@H](CC(C)C)NC(=O)[C@H](CCCCN)NC(=O)[C@H](CCCCN)NC(=O)[C@@H](N)Cc1c[nH]c2ccccc12)C(=O)N[C@@H](CC(C)C)C(=O)N[C@@H](CCCCN)C(=O)N[C@@H](Cc1ccc(O)cc1)C(=O)N[C@@H](CC(C)C)C(N)=O` [WKKLFKKILKYL], the MIC in experiment [1] came to 2.11 µM (≈ 3.39 µg/mL); in [2] it was 0.746 µM (≈ 1.2 µg/mL); in [3], 1.49 µM (≈ 2.4 µg/mL); in experiment [6], 2.98 µM (≈ 4.8 µg/mL).

The values are drawn from DBAASP.
